The values that follow come from article PMC6723059, “A Collection of Bioactive Nitrogen-Containing Molecules from the Marine Sponge Acanthostrongylophora ingens” (Marine Drugs, 2019).

The target in this experiment is T1, cyclin-dependent kinase 2 (CDK2/cyclin A) (Homo sapiens, UniProt P24941).
T1 construct: with cyclin A
The experiment is described as follows: in vitro protein kinase activity assay, […] ATP. It is filed as biochemical.

One may read the IC50 as the midpoint of a concentration-inhibition curve. In the case of `O=C1N[C@@H](Cc2ccccc2)C(=O)N2CCC[C@H]12` [compound 6, cyclo(D-Pro-L-Phe)], the IC50 was found to be 1000 nM.
